12 compounds from patent US6534495B1, “Serine protease inhibitors” (Akzo Nebel, priority 1997, dated 2003) can be followed below.

SMILES strings stand for the structures.

The first test deals with T1, Bovine Factor Xa Human (Bos taurus, UniProt P00743).
T1 construct: purchased Kabi Diagnostica
T1 sequence (P00743 234-492 limits assumed): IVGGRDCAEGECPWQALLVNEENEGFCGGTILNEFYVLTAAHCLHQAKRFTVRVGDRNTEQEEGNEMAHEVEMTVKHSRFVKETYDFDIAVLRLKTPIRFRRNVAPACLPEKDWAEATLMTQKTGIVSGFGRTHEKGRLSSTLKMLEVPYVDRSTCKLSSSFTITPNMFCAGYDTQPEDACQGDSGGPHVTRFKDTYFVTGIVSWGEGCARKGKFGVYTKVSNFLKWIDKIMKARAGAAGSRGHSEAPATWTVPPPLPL
T1 sequence (P00743 41-180 limits assumed): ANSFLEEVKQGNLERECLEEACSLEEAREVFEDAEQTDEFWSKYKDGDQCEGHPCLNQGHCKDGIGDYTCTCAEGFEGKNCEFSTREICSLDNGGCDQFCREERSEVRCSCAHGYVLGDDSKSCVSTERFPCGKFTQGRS
Briefly: Anti-factor Xa assay (hydrolysis of chromogenic substrate S-2222). The test is classed as biochemical. To be noted: S-2222, TNP buffer, 37° C. The protocol: Activated Factor X (Xa) is a factor in the coagulation cascade. The anti-Xa activity of compounds of the present invention was assessed by measuring spectrophotometrically the rate of hydrolysis of the chromogenic substrate s-2222 exterted by Xa. This assay for anti-Xa activity in a buffer system was used to assess the IC50-value of the test compound.
In general the followed procedure and test conditions were analogous to those of the anti-thrombin assay as described above. Differences are indicated below.
Reference compound: benzamidine
Solubilisation can be assisted with dimethylsulfoxide, methanol, ethanol, acetonitrile or tert.-butyl alcohol which are without adverse effects in concentrations up to 1% (for DMSO) and 2.5% (for the other solvents) in the final reaction mixture.
One vial S-2222 (15 mg; Kabi Diagnostica, Sweden) is dissolved in 10 ml water to give a concentration of 1.5 mg.ml^−1 (2 mmol.l^−1).
Bovine Factor Xa Human (71 nKat.vial^−1, Kabi Diagnostica) is dissolved in 10 ml TNP buffer and then further diluted with 30 ml TNP buffer to give a concentration of 1.77 nKat.ml^−1. The dilution has to be freshly prepared.
Instead of the S-2238 solution (in anti-thrombin assay), the above S-2222 solution is added to each well in this assay.
The compound `NCCCCC(NC(=O)CN1CCCCC(NS(=O)(=O)Cc2ccccc2)C1=O)C(=O)C(=O)NCc1ccccc1` (stereo not drawn) [Example 1, BzlSO2-norLeu(cyclo)-Gly-LysΨ[COCO]-NHBzl] registered an IC50 of 640 nM.

As for `CCOC(=O)C(=O)C(CCCCN)NC(=O)C1CCCN1C(=O)C(CC1CCCCC1)NS(=O)(=O)CC` [Example 5, EthylSO2-D-Cha-Pro-LysTr[COCO]-OEt], 280 nM corresponded to half-maximal inhibition (IC50).

The compound `CC(C)OC(=O)C(=O)C(CCCCN)NC(=O)C1CCCN1C(=O)C(CC1CCCCC1)NS(=O)(=O)Cc1ccccc1` [Example 28, BenzylSO2-D-Cha-Pro-LysΨ[COCO]—O-iPropyl] came in with a 50% inhibitory concentration (IC50) of 20 nM.

The target of a further test is T2, Human thrombin (Homo sapiens, UniProt P00734).
T2 construct: purchased Centraal Laboratorium voor Bloedtransfusie, Amsterdam, The Netherlands
Briefly: Anti-thrombin assay (hydrolysis of chromogenic substrate S-2238). The test is classed as biochemical. The conditions noted are these: S-2238, TNP buffer, 37° C., read-out: IC50, antithrombin activity. How it is done: Thrombin (Factor […]) is a factor in the coagulation cascade.
The anti-thrombin activity of compounds of the present invention was assessed by measuring spectrophotometrically the rate of hydrolysis of the chromogenic substrate s-2238 exterted by thrombin. This assay for anti-thrombin activity in a buffer system was used to assess the IC50-value of a test compound.
Test medium: Tromethamine-NaCl-polyethylene glycol 6000 (TNP) buffer
Reference compound: 12581 (Kabi)
Solubilisation can be assisted with dimethylsulfoxide, methanol, ethanol, acetonitrile or tert.-butyl alcohol which are without adverse effects in concentrations up to 2.5% in the final reaction mixture.
1. Tromethamine-NaCl (TN) buffer
Composition of the buffer:
The pH of the solution is adjusted to 7.4 at 37° C. with HCl (10 mmol.l^−1).
Polyethylene glycol 6000 is dissolved in TN buffer to give a concentration of 3 g.l^−1.
One vial S-2238 (25 mg; Kabi Diagnostica, Sweden) is dissolved in 20 ml TN buffer to give a concentration of 1.25 mg.ml^−1 (2 mmol.l^−1).
Human thrombin (16 000 nKat.vial^−1; Centraal Laboratorium voor Bloedtransfusie, Amsterdam, The Netherlands) is dissolved in TNP buffer to give a stock solution of 835 nKat.ml^−1.
Immediately before use this solution is diluted with TNP buffer to give a concentration of 3.34 nKat.ml^−1.
All ingredients used are of analytical grade
For aqueous solutions ultrapure water (Milli-Q quality) is used.
Preparation of Test and Reference Compound Solutions
The test and reference compounds are dissolved in Milli-Q water to give stock concentrations of 10^−2 mol.l^−1. Each concentration is stepwise diluted with the vehicle to give concentrations of […], 10^−4 and 10^−5 mol.l^−1. The dilutions, including the stock solution, are used in the assay (final concentrations in the reaction mixture: 3·10^−3; 10^−3; 3·10^−4; 10^−4; 3·10^−5; 10^−5, 3·10^−6 and 10^−6 mol.l^−1, respectively).
At room temperature 0.075 ml and 0.025 ml test compound or reference compound solutions or vehicle are alternately pipetted into the wells of a microtiter plate and these solutions are diluted with 0.115 ml and 0.0165 ml TNP buffer, respectively. […] Starting after 1 min of incubation, the absorbance of each sample at 405 nm is measured every 2 min. for a period of 90 min. using a kinetic microtiter plate reader (Twinreader plus, Flow Laboratories).
All data are collected in an IBM personal computer using LOTUS-MEASURE. For each compound concentration (expressed in mol.l^−1 reaction mixture) and for the blank the absorbance is plotted versus the reaction time in min.
Evaluation of responses: For each final concentration the maximum absorbance was calculated from the assay plot. […]
Turning to `NCCCCC(NC(=O)CN1CCCCC(NS(=O)(=O)Cc2ccccc2)C1=O)C(=O)C(N)=O` (stereo not drawn) [Example 4, BzlSO2-norLeu(cyclo)-Gly-LysΨ[COCO]—NH2], the concentration for half-maximal inhibition (IC50) is 90 nM.

Take `CC(C)OC(=O)C(=O)C(CCCCN)NC(=O)C1CCCN1C(=O)C(CC1CCCCC1)NS(=O)(=O)CC12CCC(CC1=O)C2(C)C` [Example 24, (10-Camphor)SO2-D-Cha-Pro-LysΨ[COCO]—O-iPropyl]: the IC50 is 10 nM.

On to `CCS(=O)(=O)NC(Cc1ccc(OC)cc1)C(=O)N1CCCC1C(=O)NC(CCCCN)C(=O)C(=O)N1CCC1` [Example 38, EtSO2-D-Tyr(Me)-Pro -LysΨ[COCO]-Azetidine], for which the half-inhibitory concentration (IC50) was found to be 110 nM.

With `CC(C)OC(=O)C(=O)C(CCCCN)NC(=O)C1CCCN1C(=O)C(NS(=O)(=O)Cc1ccccc1)C(c1ccccc1)c1ccccc1` [Example 40, BzlSO2-D-Dpa-Pro-LysΨ[COCO]—O-iPropyl], the IC50 was determined as 20 nM.

For a further test, the target named is T3, recombinant human factor VIIa / recombinant human Tissue Factor complex (Homo sapiens, UniProt P08709).
T3 construct: purchased American Diagnostica Inc, Greenwich, Conn
T3 sequence (P08709 213-466 limits assumed): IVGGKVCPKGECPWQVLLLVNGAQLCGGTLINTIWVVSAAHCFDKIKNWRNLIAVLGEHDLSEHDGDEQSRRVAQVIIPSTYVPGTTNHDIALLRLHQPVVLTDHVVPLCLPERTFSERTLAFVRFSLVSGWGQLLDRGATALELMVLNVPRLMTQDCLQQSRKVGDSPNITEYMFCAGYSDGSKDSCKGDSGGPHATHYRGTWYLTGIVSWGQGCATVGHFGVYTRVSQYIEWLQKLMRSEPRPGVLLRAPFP
T3 sequence (P08709 61-212 limits assumed): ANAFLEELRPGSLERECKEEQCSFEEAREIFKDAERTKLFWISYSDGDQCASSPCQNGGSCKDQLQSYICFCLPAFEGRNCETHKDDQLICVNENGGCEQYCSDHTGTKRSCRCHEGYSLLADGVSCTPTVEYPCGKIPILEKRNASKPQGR
T3 sequence (P13726 33-295 partner): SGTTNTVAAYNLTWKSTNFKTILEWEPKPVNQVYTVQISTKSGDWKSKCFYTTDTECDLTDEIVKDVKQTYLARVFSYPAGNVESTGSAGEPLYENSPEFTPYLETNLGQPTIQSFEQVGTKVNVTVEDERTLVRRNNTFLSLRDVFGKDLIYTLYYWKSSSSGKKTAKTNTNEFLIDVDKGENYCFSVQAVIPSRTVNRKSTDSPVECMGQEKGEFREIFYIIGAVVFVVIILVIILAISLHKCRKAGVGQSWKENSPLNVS
Briefly: Anti factor VIIa/tissue factor assay (amidolysis of Pefachrome VIIa). The test is classed as biochemical. To be noted: reference compound; 50% inhibition of the amidolytic reaction at 90 min. The text has this: III. Anti Factor VIIa/Tissue Factor Assay
Vascular damage initiates a series of enzyme generation reactions ultimately leading to the formation of a fibrin gel at the site of the injury. The primary enzyme generation reaction is the generation of activated factor VII (VIIa) from proenzyme factor VII. This activation reaction takes place by an as yet unknown mechanism. […] The activated Factor VII then also binds to membrane-bound TF and this […] tenase complex next converts Factor X into Factor Xa.
Thrombosis develops when there is insufficient control of the coagulation reaction. One way to restore this control is by inhibiting essential coagulation enzymes such as for instance the complex of membrane-bound TF and Factor VIIa. […] A method is described by which the inhibitory potency of compounds towards VIIa/TF complex can be established. Test compounds are mixed at various concentrations with factor VIIa and TF and with a chromogenic substrate, which is known to be split far better by TF-bound VIIa than by free VIIa. The amidolytic reaction taking place is continuously monitored in a microtiter plate reader. Inhibitory potency of the compounds investigated is expressed by the IC50, defined as the concentration of compounds yielding 50% inhibition of the amidolytic reaction, ninety minutes after the start of the reaction.
A ten times concentrated Hepes buffer made by dissolving 29.40 g CaCl2.2H2O, 47.66 g Hepes, 87.66 g NaCl and 30.00 g polyethyleneglycol (PEG) MW=6000 in 1000 ml aqua bidest. After the solution has been heated to 37° C., the pH of the buffer is set on 7.40 with help of 10 molar NaOH. The concentrated buffer solution is stored at 4° C. and is stable for at least two months at this condition. Prior to use the buffer is diluted in aqua bidest. 1 to 8 to obtain a final concentration in the wells (See test procedure) of 20 mM CaCl2, 20 mM Hepes, 150 mM NaCl and 0.3% PEG6000. If compounds are dissolved and diluted in aqua bidest. or another vehicle because of an insufficient solubility the Hepes buffer can be diluted 1 to 6 to preserve the same ionic strength in the test.
Recombinant Human Factor VIIa
Recombinant human factor VIIa is obtained from American Diagnostica Inc, Greenwich, Conn. Each vial contains 1.2 mg recombinant human factor VIIa, which is lyophilized from 2 ml buffer composed of 10 mM glycylglycine, 50 mM NaCl, 10 mM CaCl2, 30 mg/ml mannitol, 0.1% Tween, pH 5.5. The contents of each of these vials is reconstituted with 2 ml aqua bidest. as indicated by the manufacturer. The 2 ml 1.2*10^−5 stock solution thus obtained is divided in smaller fractions, which are stored at −30° C. At this condition these VIIa samples are stable for at least 6 months.
Recombinant Human Tissue Factor
Recombinant human Tissue Factor is obtained from American Diagnostica Inc, Greenwich, Conn. Each vial contains 25 μg recombinant human Tissue Factor (non-lipidated, MW 35000 Dalton), which is lyophilized from 1 ml Tris/HCl buffer (pH 8.0) composed of 150 mM NaCl, 200 mM mannitol and 10 mM CHAPS (Steroid derivative used to solubilize membrane proteins; see Merck Index). The contents of each vial is reconstituted with 1 ml aqua bidest. as indicated by the manufacturer. The 1 ml 7.14×10^−7 M stock solution thus obtained is divided in smaller fractions, which are stored at −30° C. Thus stored these VIIa samples are stable for at least 67 months. […]
As to `NC(N)=NCCC[C@H](NC(=O)[C@@H]1CCCN1C(=O)[C@H](N)Cc1ccccc1)C(=O)CCl` [Org 34593, reference compound], the IC50 worked out at 300 nM.

Staying with this test, now noted: single point, at a concentration of 1×10^−5 M.
With `CCS(=O)(=O)N[C@@H](CC(N)=O)C(=O)N[C@@H](CC(C)C)C(=O)N[C@@H](CCCCN)C(=O)C(=O)OC(C)C` [EtSO2-Asn-Leu-LysΨ[COCO]-O-iPropyl], the “percentage inhibition, anti factor VIIa/tissue factor activity” value worked out at 56%.

With `CCS(=O)(=O)N1Cc2ccccc2C[C@@H]1C(=O)N[C@@H](Cc1ccccc1)C(=O)N[C@@H](CCCCN)C(=O)C(=O)OC(C)C` [EtSO2-D-3-Tiq-Phe-LysΨ[COCO]-O-iPropyl], the “percentage inhibition, anti factor VIIa/tissue factor activity” value is reported as 91%.

In the case of `CCS(=O)(=O)N[C@H](CC(C)C)C(=O)N[C@@H](CCC(N)=O)C(=O)N[C@@H](CCCCN)C(=O)C(=O)OC(C)C` [EtSO2-D-Leu-Gln-LysΨ[COCO]-O-iPropyl], the “percentage inhibition, anti factor VIIa/tissue factor activity” value is on record as 94%.

For `CCS(=O)(=O)N[C@H](Cc1ccccc1)C(=O)N[C@@H](CC(C)C)C(=O)N[C@@H](CCCCN)C(=O)C(=O)OC(C)C` [EtSO2-D-Phe-Leu-LysΨ[COCO]-O-iPropyl], the “percentage inhibition, anti factor VIIa/tissue factor activity” value was determined as 98%.

For orientation: IC50 means the concentration needed to halve the response being measured.
